# Results reported in paper PMC9055273 (RSC Advances, 2020).
# System: bacteria
# Conditions: 10 μM
structure (smiles),measurement,value
c1ccncc1 [pyridine],Inhibition of bacterial growth,did not obviously inhibit bacterial growth
